Laboratory results published in patent publication US20240366560A1, “SMALL MOLECULE TREATMENT OF FATTY LIVER DISEASE AND HCC” (ScandiEdge Therapeutics AB, priority 2021, published 2024).

How the values were obtained:
FASN = FASN protein level by western blot in steatosis-induced HepG2, 7-day drug treatment; assay type: cell-based; details: steatosis-induced HepG2, 7 days of drug treatment, P<0.05, FIG. 2C
Protocol: (§1) WT HepG2 was included in this study and cultured by Roswell Park Memorial Institute (RPMI, R2405, Sigma Aldrich) 1640 Medium with 10% fetal bovine serum (FBS) and 1% penicillin-streptomycin (PS). To induce a steatosis model into WT HepG2 cells, high glucose Dulbecco's Modified Eagle Media (DMEM, D0822/D5671, Sigma-Aldrich) containing 10% FBS and 1% PS was used as medium for one week, together with 10 μg/mL insulin and 10 μM T0901317. All of cells were incubated in the incubator with 5% CO2 and 37° C. (Thermo SCIENTIFIC). Fresh medium was provided every two days.
(§2) As for drug-screening, different numbers of HepG2 cells were seeded for distinct experiments. More in details, 40,000 cells and 500,000 cells were used for 2-day-drug treatment in 96-well-plate and 6-well plate, respectively, while 80,000 cells and 300,000 cells were used for one-week drug treatment in 96-well plate and 6-well plate, respectively. Detailed drug dosages could be found in FIG. 5. Fresh medium was provided every two days.
(§3) Protein content levels were detected by western blot. After the respective treatment of drugs, the cell pellets were lysed in cell lytic M, followed by protein extraction from supernatant (10 min, 13,000r/min centrifuge). Extracted cell lysate was stored in −20° C. Proteins were quantified through Bovine albumin serum (BAS) standard curve with protein assay dye reagent (BIO-RAD). The proteins were separated by SDS-PAGE with 100v in 90 min by mini-protein TGX precast gels (4-15%, 15 wells, 15 μl/well, BIO-RAD), and then transfer to Mini PVDF transfer package through transfer system (Transfer-Turbo, BIO-RAD). After 30 min blocking with 5% skim milk in cold room (4° C.) and washing with TBST, membrane was cut by the size of interested proteins. Primary antibodies were added into the corresponding membrane sections for overnight binding. Then the membranes were washed with TBST, and the secondary antibodies were incubated for 1 h in cold room. The following antibody were used: (Goat pAb to Rb lg, ab205718, abcam; Rb pAb to beta-actin, ab8227, abcam; anti-pklr, HPA006653, SIGMA; Rb pAb to fatty acid synthase, ab99539, abcam). The bindings were imaged by immunostaining and machine (ImageQuant LAS 500). All antibodies were purchased from Abcam online, and βactin was used as global normalized protein. After measurement, the strength of signal for each protein was quantified by ImageJ. The background noise was removed, and all results were normalized by the levels of β-actin.
(§4) To further analyse the effect of these drugs on lipid accumulation via the DNL pathway, steatosis was induced to HepG2 by treating the cells with high glucose medium (DMEM), insulin and T0901317 (Hansmannel et al., 2006). […] Therefore, the effects of these two drugs on the de novo synthesis of lipids were investigated based on the steatosis-induced HepG2 model. […] Taken together, it was shown that BX-912 and JNK-IN-5A effectively alleviate the protein expression of PKLR and FASN as well as TG levels in HepG2 cell lines, and thus, it was decided to perform in vivo evaluations to test the effect of these two drugs.

PKLR = PKLR protein level by western blot in steatosis-induced HepG2, 7-day drug treatment; assay type: cell-based; details: steatosis-induced HepG2, 7 days of drug treatment, P<0.05, FIG. 2B
Protocol: as §1, §2, §3, §4

HSD-fed rats = test: In vivo efficacy study in HSD-fed steatosis rats: immunohistochemical 8-OH-dG examination of liver; parameters: species or system rat; details: 30 mg/kg, 7 days, HSD 3w group: strong, FIG. 3
From the text: In vivo efficacy studies. After 1-week acclimation period, rats were randomly separated into two groups: control group (n=5) and high sucrose group (n=20). The control group was fed with a standard diet while the others consumed high sucrose diet (HSD). Sucrose was purchased from Sigma Chemical Co. (St Louis, MO, USA) and supplied at the dose of 10% in the drink water for two weeks. After 2 weeks, five rats in the HSD group were randomly sacrificed for conformation of NAFLD model. Then, the remaining rats in the HSD group were separated into three sub-groups (n=5): HSD group, HSD plus BX-912 group and HSD plus JNK-IN-5A group. BX-912 and JNK-IN-5A were dissolved in DMSO and were orally administrated using oral gavage for one week (30 mg/kg/day). The HSD group were treated with vehicle solution only. At the end of the experiment, rats were sacrificed after being anesthetized. Blood samples were collected from the abdominal aorta and centrifuged at 8000 rpm for 15 min at 4° C. The plasma was separated and stored at −80° C. until further analysis. Other internal organs, including the heart, adipose tissues, liver, kidney, muscle, intestine (duodenum, ileum, jejunum), pancreas, colon and stomach were immediately removed and then snap frozen in liquid nitrogen and stored at −80° C.; the liver was also fixed in 10% formaldehyde for histopathological examination. Immunohistochemical examination. […]

| SMILES | protein expression level of FASN (FASN) | protein expression level of PKLR (PKLR) | 8-OH-dG expression in hepatocytes in liver tissues (HSD-fed rats) |
| --- | --- | --- | --- |
| N#Cc1c(NC(=O)c2cccc3ccccc23)sc2c1CCCC2 [JNK-IN-5A, N-(3-cyano-4,5,6,7-tetrahydrobenzo [b]thien-2-yl)-1-naphthalenecarboxamide] | significantly reduced | significantly decreased | significantly decreased |
| O=C(Nc1cccc(Nc2ncc(Br)c(NCCc3cnc[nH]3)n2)c1)N1CCCC1 [BX-912, N-[3-[[5-bromo-4-[[2-(1H-imidazol-5-yl)ethyl]amino]-2-pyrimidinyl]amino]phenyl]-1-pyrrolidinecarboxamide] | significantly reduced | significantly decreased | significantly decreased |
